According to ChEMBL document CHEMBL5543109, “Novel β-Hairpin Antimicrobial Peptide Containing the β-Turn Sequence of -NG- and the Tryptophan Zippers Facilitate Self-Assembly into Nanofibers, Exhibiting Excellent Antimicrobial Performance” (J Med Chem, 2024):
In brackets after ≈: the same amount, converted by molar mass. Activity calls are given as the source filed them. The rule behind the calls is not given here.

Assays:
[1] = system: Staphylococcus aureus; assay: Antibacterial activity against Staphylococcus aureus 794 infected in BALB/c mouse skin wound infection model assessed as reduction in wound area at 1 mg/ml, ip pre-infected with bacteria for 24 hrs followed by compound addition and measured on day 5; type: functional, organism-based; conditions: time 5.0 day
[2] = system: Staphylococcus aureus; assay: Antibacterial activity against Staphylococcus aureus 794 infected in BALB/c mouse skin wound infection model assessed as reduction in wound area at 1 mg/ml, ip pre-infected with bacteria for 24 hrs followed by compound addition and measured on day 5 in presence of vancomycin; type: functional, organism-based; conditions: time 5.0 day
[3] = system: Staphylococcus aureus; assay: Antibacterial activity against Staphylococcus aureus incubated for 18 hrs in presence of CaCl2 by broth microdilution method; type: functional, organism-based
[4] = system: Staphylococcus aureus; assay: Synergistic antibacterial activity against Staphylococcus aureus 794 assessed as fractional inhibitory concentration index incubated for 18 hrs in presence of rifampin by checkerboard assay; type: functional
[5] = system: Staphylococcus aureus; assay: Antibacterial activity against methicillin resistant Staphylococcus aureus 75 incubated for 18 hrs by broth microdilution method; type: functional
[6] = system: Klebsiella pneumoniae; assay: Bactericidal activity against Klebsiella pneumoniae ATCC 700603 incubated for 18 hrs by broth microdilution method; type: functional
[7] = system: Pseudomonas aeruginosa; assay: Antibacterial activity against Pseudomonas aeruginosa assessed as fractional inhibitory concentration index incubated for 18 hrs in presence of cefotaxime by checkerboard assay; type: functional
[8] = system: Pseudomonas aeruginosa; assay: Induction of morphological change in Pseudomonas aeruginosa assessed as bacterial deformation at 2 times MIC incubated for 30 mins by SEM analysis; type: functional, organism-based
[9] = system: Staphylococcus aureus; assay: Additive antibacterial activity against Staphylococcus aureus 794 assessed as fractional inhibitory concentration index incubated for 18 hrs in presence of gentamycin by checkerboard assay; type: functional
[10] = system: Staphylococcus aureus; assay: Additive antibacterial activity against methicillin resistant Staphylococcus aureus 75 assessed as fractional inhibitory concentration index incubated for 18 hrs in presence of gentamycin by checkerboard assay; type: functional
[11] = system: Staphylococcus aureus; assay: Antibacterial activity against Staphylococcus aureus infected in BALB/c mouse systemic infection model assessed as reduction in liver bacterial load at 5 to 10 mg/kg, ip measured after 8 hrs; type: functional, organism-based; conditions: dose 5-10 mg/kg
[12] = system: Staphylococcus aureus; assay: Antibacterial activity against Staphylococcus aureus 794 infected in BALB/c mouse skin wound infection model assessed as reduction in wound bacterial load at 1 mg/ml, ip administered at 1 hr interval for total 6 treatment and measured after 1 hr post last dose in presence of vancomycin; type: functional, organism-based; conditions: time 7.0 hrs
[13] = Self-assembly property of compound in PBS assessed as beta-sheet protofibrils formation at 128 uM incubated for 30 mins by SEM analysis; type: physicochemical; conditions: buffer, 0.5 h
[14] = system: Staphylococcus aureus; assay: Additive antibacterial activity against methicillin resistant Staphylococcus aureus assessed as fractional inhibitory concentration index incubated for 18 hrs in presence of gentamycin by checkerboard assay; type: functional
[15] = system: Cell membrane; assay: Induction of cell membrane disruption in Escherichia coli assessed as PI uptake at 2 times MIC incubated for 2 hrs by PI staining based flow cytometry analysis (reference value: 11.9%); type: cell membranes
[16] = system: Klebsiella pneumoniae; assay: […] antibacterial activity against Klebsiella pneumoniae assessed as fractional inhibitory concentration index incubated for 18 hrs in presence of polymyxin B by checkerboard assay; type: functional
[17] = system: Staphylococcus aureus; assay: Antibacterial activity against Staphylococcus aureus 794 infected in BALB/c mouse skin wound infection model assessed as reduction in wound area at 1 mg/ml, ip pre-infected with bacteria for 24 hrs followed by compound addition and measured on day 9 to 13; type: functional, organism-based; conditions: time 9-13 day
[18] = system: Cell membrane; assay: Induction of cell membrane disruption in Staphylococcus aureus assessed as PI uptake incubated for 2 hrs by PI staining based confocal laser scanning microscopy; type: cell membranes
[19] = system: Staphylococcus aureus; assay: Additive antibacterial activity against Staphylococcus aureus 125 assessed as fractional inhibitory concentration index incubated for 18 hrs in presence of cefotaxime by checkerboard assay; type: functional
[20] = system: Staphylococcus aureus; assay: Additive antibacterial activity against Staphylococcus aureus 125 assessed as fractional inhibitory concentration index incubated for 18 hrs in presence of kanamycin by checkerboard assay; type: functional
[21] = system: Staphylococcus aureus; assay: Additive antibacterial activity against methicillin resistant Staphylococcus aureus 113 assessed as fractional inhibitory concentration index incubated for 18 hrs in presence of cefotaxime by checkerboard assay; type: functional
[22] = system: Pseudomonas aeruginosa; assay: Antibacterial activity against Pseudomonas aeruginosa incubated for 18 hrs in presence of MgCl2 by broth microdilution method; type: functional, organism-based
[23] = Self-assembly property of compound in PBS assessed as critical aggregation concentration incubated for 48 hrs; type: physicochemical; conditions: buffer
[24] = system: Staphylococcus aureus; assay: Additive antibacterial activity against Staphylococcus aureus assessed as fractional inhibitory concentration index incubated for 18 hrs in presence of polymyxin B by checkerboard assay; type: functional
[25] = system: Pseudomonas aeruginosa; assay: Induction of morphological change in Pseudomonas aeruginosa assessed as pore formation at 2 times MIC incubated for 30 mins by SEM analysis; type: functional, organism-based
[26] = system: Staphylococcus aureus; assay: Synergistic antibacterial activity against Staphylococcus aureus 794 assessed as fractional inhibitory concentration index incubated for 18 hrs in presence of bacitracin by checkerboard assay; type: functional
[27] = Acute toxicity in ip dosed mouse by karber method; type: organism-based; conditions: in vivo, read-out: LD50
[28] = system: Staphylococcus aureus; assay: Synergistic antibacterial activity against Staphylococcus aureus 794 assessed as fractional inhibitory concentration index incubated for 18 hrs in presence of cefotaxime by checkerboard assay; type: functional
[29] = system: Cell membrane; assay: Induction of outer membrane permeabilization in Escherichia coli at 1/2 MIC measured immediately by NPN-dye based assay; type: cell membranes

NCCCC[C@@H](NC(=O)[C@H](N)Cc1c[nH]c2ccccc12)C(=O)N[C@H](Cc1c[nH]c2ccccc12)C(=O)N[C@H](CCCCN)C(=O)N[C@H](Cc1c[nH]c2ccccc12)C(=O)N[C@@H](CC(N)=O)C(=O)NCC(=O)N[C@H](Cc1c[nH]c2ccccc12)C(=O)N[C@H](CCCCN)C(=O)N[C@H](Cc1c[nH]c2ccccc12)C(=O)N[C@H](CCCCN)C(=O)N[C@H](Cc1c[nH]c2ccccc12)C(N)=O
Activity [1]: Active | Activity [2]: Active | Activity [3]: Active | fractional inhibitory concentration index (FICI) [4]: 0.188 | MIC [5]: 8 µM (≈ 14.5 µg/mL) | MBC [6]: 8 µM (≈ 14.5 µg/mL) | fractional inhibitory concentration index (FICI) [7]: 1.063 | Activity [8]: Active | fractional inhibitory concentration index (FICI) [9]: 0.563 | fractional inhibitory concentration index (FICI) [10]: 0.625 | Activity [11]: Active | Activity [12]: Active | Activity [13]: Active | fractional inhibitory concentration index (FICI) [14]: 0.75 | Activity [15]: 86.2% | fractional inhibitory concentration index (FICI) [16]: 0.375 | Activity [17]: Active | Activity [18]: Dose-Dependent Effect | fractional inhibitory concentration index (FICI) [19]: 0.75 | fractional inhibitory concentration index (FICI) [20]: 0.563 | fractional inhibitory concentration index (FICI) [21]: 0.563 | Activity [22]: Active | CAC [23]: 7.78 µM | fractional inhibitory concentration index (FICI) [24]: 1 | Activity [25]: Active | fractional inhibitory concentration index (FICI) [26]: 0.313 | LD50 [27]: 230 mg/kg | fractional inhibitory concentration index (FICI) [28]: 0.313 | Activity [29]: 40%
